Test [1] has as its target T1, C-C chemokine receptor type 2 (Homo sapiens, UniProt P41597). The test can be described thus: Displacement of [125I]CCL2 from CCR2 in human U2OS cell membranes by radioligand displacement assay.
Target sequence in this assay (P41597 whole entry): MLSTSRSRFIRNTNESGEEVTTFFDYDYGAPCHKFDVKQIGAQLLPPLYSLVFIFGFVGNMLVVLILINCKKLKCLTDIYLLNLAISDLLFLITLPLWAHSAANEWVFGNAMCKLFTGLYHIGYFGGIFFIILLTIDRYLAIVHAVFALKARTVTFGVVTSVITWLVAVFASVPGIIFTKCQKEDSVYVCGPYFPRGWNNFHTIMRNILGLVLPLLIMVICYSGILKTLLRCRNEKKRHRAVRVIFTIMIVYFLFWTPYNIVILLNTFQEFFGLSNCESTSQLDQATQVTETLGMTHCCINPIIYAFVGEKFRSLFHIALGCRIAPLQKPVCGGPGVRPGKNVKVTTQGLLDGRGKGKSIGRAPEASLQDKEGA
The target of test [2] is T1, C-C chemokine receptor type 2. The test can be described thus: Displacement of [125I]CCL2 from CCR2 in human U2OS cell membranes at 1 uM by radioligand displacement assay. (Loss of bound radioactivity is the signal in a displacement assay; it reports binding, not function.)
Target sequence in this assay (P41597 whole entry, looked up): as the sequence (P41597 whole entry) above

Structures are written as SMILES.

`O=C(CNC(=O)c1cccc(C(F)(F)F)c1)NC1CCN(C2CCC(c3ccc(O)cc3)CC2)CC1` (stereo not given): affinity in test [1] was put at a Ki of 0.139 µM.

Turning to `O=C(CNC(=O)c1cccc(C(F)(F)F)c1)NC1CCN(C2CCC(c3ccccc3)CC2)CC1` (stereo not given), the Ki – broadly, the dissociation constant of the complex between target and ligand, obtained from inhibition or displacement – in test [1] was determined as 0.074 µM. For `O=C(CNC(=O)c1cccc(C(F)(F)F)c1)NC1CCN(Cc2cn(-c3ccccc3)nn2)CC1`, the inhibition (in general, the drop in the measured response relative to a control, in per cent) in test [2] turned out to be 12%. For `Cc1cccc(C2CCC(N3CCC(NC(=O)CNC(=O)c4cccc(C(F)(F)F)c4)CC3)CC2)c1` (stereo not given), affinity in test [1] was put at a Ki of 0.27 µM. For `COc1cccc(C2CCC(N3CCC(NC(=O)CNC(=O)c4cccc(C(F)(F)F)c4)CC3)CC2)c1` (stereo not given), the inhibition constant Ki in test [1] came out at 0.066 µM. `Cc1ccccc1C1CCC(N2CCC(NC(=O)CNC(=O)c3cccc(C(F)(F)F)c3)CC2)CC1` (stereo not given): the inhibition in test [2] is 26%.

Regarding `COc1cccc(OC)c1C1CCC(N2CCC(NC(=O)CNC(=O)c3cccc(C(F)(F)F)c3)CC2)CC1` (stereo not given), in test [2], the inhibition was 42%.

In test [2], `O=C(CNC(=O)c1cccc(C(F)(F)F)c1)NC1CCN(C2CCc3ccccc3C2)CC1` (stereo not given) had an inhibition of 24%. `COc1cc(OC)cc(C2CCC(N3CCC(NC(=O)CNC(=O)c4cccc(C(F)(F)F)c4)CC3)CC2)c1` (stereo not given): the inhibition in test [2] was 41%. On to `O=C(CNC(=O)c1cccc(C(F)(F)F)c1)NC1CCN(CCCc2ccccc2)CC1`, for which the inhibition in test [2] turned out to be 6%. `O=C(CNC(=O)c1cccc(C(F)(F)F)c1)NC1CCN(C2CCC(c3ccc4c(c3)OCO4)CC2)CC1` (stereo not given): the affinity in test [1], expressed as Ki, was 0.09 µM. The compound `O=C(NCC(=O)N1CCC(NC2CCC(c3ccccc3)CC2)CC1)c1cccc(C(F)(F)F)c1` (stereo not given) yielded an inhibition in test [2] of 31%. In test [2], `O=C(CNC(=O)c1cccc(C(F)(F)F)c1)NC1CCN(C2CCCC(c3ccccc3)C2)CC1` (stereo not given) had an inhibition of 10%. Compound `Cc1ccc(C2CCC(N3CCC(NC(=O)CNC(=O)c4cccc(C(F)(F)F)c4)CC3)CC2)cc1` (stereo not given) gave an inhibition in test [2] of 38%. On the same count and under the same terms, for `O=C(CNC(=O)c1cccc(C(F)(F)F)c1)NC1CCN(Cc2ccc(Cl)cc2)CC1` the value was 0%.

The record behind these values is ChEMBL document CHEMBL3351763, “Design and synthesis of novel small molecule CCR2 antagonists: evaluation of 4-aminopiperidine derivatives” (Bioorg Med Chem Lett, 2014).
